According to patent US20250092017A1, “2-PIPERIDYL OR 2-PYRAZOLYL SUBSTITUTED PYRIMIDINE COMPOUND SERVING AS EGFR INHIBITOR” (SUZHOU PUHE BIOPHARMA CO., LTD., priority 2022, published 2025):

What was measured:
Ba/F3-FL-EGFR-L858R = Ba/F3-FL-EGFR-L858R (Homo sapiens, UniProt P00533, L858R, cells depend on it); assay: CellTiter-Glo proliferation, Ba/F3-FL-EGFR-L858R; assay type: cell-based; details: 72 hours, read-out: Ba/F3-FL-EGFR-L858R IC50/nM
In short: (§1)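 Ba/F3 lines dependent on the indicated EGFR variants were treated with compounds at a final DMSO concentration of 0.1% at 37 °C, 5% CO2. Viability was read by CellTiter-Glo luminescence, and inhibition rate was normalised to DMSO-treated cells (max) and medium-only wells (min). IC50 came from inhibition curves.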

EGFR (wild-type) = EGFR (wild-type) (Homo sapiens, UniProt P00533); assay: MSA (Mobility Shift Assay) kinase activity, EGFR wild type; assay type: biochemical; details: read-out: EGFR wt/ IC50/nM
In short: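 Kinase preincubated with compound 10 min at room temperature, then reaction started with ATP plus substrate in 1x kinase buffer and run at room temperature. Substrate-to-product conversion read by mobility shift; % inhibition normalised to no-enzyme and no-compound controls, IC50 from variable-slope four-parameter fit.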

[1] = target: Ba/F3-FL-EGFR-L858R-T790M-C797S (Homo sapiens, UniProt P00533, T790M/C797S/L858R, cells depend on it); assay: CellTiter-Glo proliferation, Ba/F3-FL-EGFR-L858R-T790M-C797S; assay type: cell-based; details: 72 hours, read-out: Ba/F3-FL-EGFR-L858R-T790M-C797S IC50/nM
In short: as §1

[2] = Liver microsome stability test, mouse; assay type: in vitro ADME; details: mouse liver microsomes 0.5 mg/ml, compound 1 μM, NADPH 1 mM, within 60 minutes
Procedure: The compounds of the present disclosure were subjected to a liver microsome stability test. The compounds to be tested were co-incubated with liver microsomes of different species with or without the addition of NADPH. The final concentration of the compounds to be tested in the test system was 1 μM. The final concentration of NADPH was 1 mM, and the final concentration of liver microsomes was 0.5 mg/ml.

[3] = target: Ba/F3-FL-EGFR-del19/T790M (Homo sapiens, UniProt P00533, DEL746-750/T790M, cells depend on it); assay: CellTiter-Glo proliferation, Ba/F3-FL-EGFR-del19/T790M; details: read-out: Ba/F3-FL-EGFR-del19/T790M IC50/nM, 72 hours
Procedure: (§2) Promega CellTiter-Glo reagent was used to detect the effects of small molecule inhibitors on the proliferation of three Ba/F3 cell lines (Ba/F3-FL-EGFR-de119, Ba/F3-FL-EGFR-de119-T790M, Ba/F3-FL-EGFR-de119-T790M-C797S).
(§3) The cell lines were cultured in an incubator at 37° C. and 5% CO2. Cells were passaged regularly and cells in the logarithmic phase were used for plating. 95 μL of cell suspension was added to each well of the cell plate, and culture medium without cells (containing 0.1% DMSO) was added to the Min control wells. Substance addition for compound detection cell plate: 5 μL of 20× compound working solution was added to the cell culture plate. 5 μL of DMSO-cell culture medium mixture was added to the Max control, with the final DMSO concentration of 0.1%. 5 μL of DMSO-cell culture medium mixture was added to the Max control. The final DMSO concentration was 0.1%.
(§4) Cell viability was detected by CellTiter-Glo luminescence assay. Data analysis:
(§5) The cell proliferation inhibition rate (Inhibition Rate) data was processed using the following formula:
(§6) wherein: RLUDrug represents the relative luminescence unit of the cells with the addition of drug, RLUMin represents the luminescence unit of the culture medium, and RLUMax represents the relative luminescence unit of the cells with the addition of DMSO.
(§7) The inhibition rates corresponding to different concentrations of compounds were calculated in EXCEL, and then the inhibition rate curve was plotted using GraphPad Prism software and related parameters including the maximum and minimum inhibition rates of cells and IC50 values were calculated.

Ba/F3-FL-EGFR = target: T1, Ba/F3-FL-EGFR (Homo sapiens, UniProt P00533); assay: CellTiter-Glo proliferation, Ba/F3-FL-EGFR; assay type: cell-based; details: 72 hours, read-out: Ba/F3-FL-EGFR IC50/nM
T1 construct: FL read as full length
In short: as §1

[4] = target: Ba/F3-FL-EGFR-Del19 (E746-A750) (Homo sapiens, UniProt P00533, DEL746-750, cells depend on it); assay: CellTiter-Glo proliferation, Ba/F3-FL-EGFR-Del19; details: read-out: Ba/F3-FL-EGFR-Del19 (E746-A750), 72 hours
Procedure: as §2, §3, §4, §5, §6, §7

Chain of EGFR (wild-type) (P00533 25-1210): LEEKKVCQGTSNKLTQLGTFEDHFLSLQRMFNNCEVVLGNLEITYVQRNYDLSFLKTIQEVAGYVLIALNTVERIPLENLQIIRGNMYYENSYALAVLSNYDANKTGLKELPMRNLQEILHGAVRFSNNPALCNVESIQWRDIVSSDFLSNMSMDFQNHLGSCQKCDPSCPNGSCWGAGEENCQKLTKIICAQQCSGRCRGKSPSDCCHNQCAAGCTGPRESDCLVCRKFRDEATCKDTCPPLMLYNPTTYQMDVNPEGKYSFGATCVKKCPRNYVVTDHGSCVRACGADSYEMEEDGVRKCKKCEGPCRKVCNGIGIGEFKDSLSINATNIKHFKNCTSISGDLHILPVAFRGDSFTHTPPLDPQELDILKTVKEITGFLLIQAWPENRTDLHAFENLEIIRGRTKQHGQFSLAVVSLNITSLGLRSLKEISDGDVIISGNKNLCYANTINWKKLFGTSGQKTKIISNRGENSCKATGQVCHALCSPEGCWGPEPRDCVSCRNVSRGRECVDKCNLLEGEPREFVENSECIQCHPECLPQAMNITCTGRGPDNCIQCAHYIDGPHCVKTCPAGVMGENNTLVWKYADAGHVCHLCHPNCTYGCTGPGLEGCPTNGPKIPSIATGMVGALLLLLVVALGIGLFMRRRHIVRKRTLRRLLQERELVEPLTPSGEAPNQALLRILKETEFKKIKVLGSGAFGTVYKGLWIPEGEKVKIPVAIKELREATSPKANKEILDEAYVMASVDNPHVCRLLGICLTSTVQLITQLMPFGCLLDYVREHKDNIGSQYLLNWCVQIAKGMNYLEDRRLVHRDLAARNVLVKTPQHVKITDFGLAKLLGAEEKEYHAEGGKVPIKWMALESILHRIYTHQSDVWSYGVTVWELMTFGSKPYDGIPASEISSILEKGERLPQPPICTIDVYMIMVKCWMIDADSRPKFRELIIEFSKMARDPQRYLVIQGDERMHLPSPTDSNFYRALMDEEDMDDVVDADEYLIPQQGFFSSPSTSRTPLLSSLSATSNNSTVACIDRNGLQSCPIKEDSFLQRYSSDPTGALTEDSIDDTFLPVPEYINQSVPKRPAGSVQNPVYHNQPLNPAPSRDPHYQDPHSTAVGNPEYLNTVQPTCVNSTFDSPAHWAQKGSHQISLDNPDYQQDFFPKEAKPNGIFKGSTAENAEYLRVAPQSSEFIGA
Chain of Ba/F3-FL-EGFR-L858R (P00533 whole entry L858R): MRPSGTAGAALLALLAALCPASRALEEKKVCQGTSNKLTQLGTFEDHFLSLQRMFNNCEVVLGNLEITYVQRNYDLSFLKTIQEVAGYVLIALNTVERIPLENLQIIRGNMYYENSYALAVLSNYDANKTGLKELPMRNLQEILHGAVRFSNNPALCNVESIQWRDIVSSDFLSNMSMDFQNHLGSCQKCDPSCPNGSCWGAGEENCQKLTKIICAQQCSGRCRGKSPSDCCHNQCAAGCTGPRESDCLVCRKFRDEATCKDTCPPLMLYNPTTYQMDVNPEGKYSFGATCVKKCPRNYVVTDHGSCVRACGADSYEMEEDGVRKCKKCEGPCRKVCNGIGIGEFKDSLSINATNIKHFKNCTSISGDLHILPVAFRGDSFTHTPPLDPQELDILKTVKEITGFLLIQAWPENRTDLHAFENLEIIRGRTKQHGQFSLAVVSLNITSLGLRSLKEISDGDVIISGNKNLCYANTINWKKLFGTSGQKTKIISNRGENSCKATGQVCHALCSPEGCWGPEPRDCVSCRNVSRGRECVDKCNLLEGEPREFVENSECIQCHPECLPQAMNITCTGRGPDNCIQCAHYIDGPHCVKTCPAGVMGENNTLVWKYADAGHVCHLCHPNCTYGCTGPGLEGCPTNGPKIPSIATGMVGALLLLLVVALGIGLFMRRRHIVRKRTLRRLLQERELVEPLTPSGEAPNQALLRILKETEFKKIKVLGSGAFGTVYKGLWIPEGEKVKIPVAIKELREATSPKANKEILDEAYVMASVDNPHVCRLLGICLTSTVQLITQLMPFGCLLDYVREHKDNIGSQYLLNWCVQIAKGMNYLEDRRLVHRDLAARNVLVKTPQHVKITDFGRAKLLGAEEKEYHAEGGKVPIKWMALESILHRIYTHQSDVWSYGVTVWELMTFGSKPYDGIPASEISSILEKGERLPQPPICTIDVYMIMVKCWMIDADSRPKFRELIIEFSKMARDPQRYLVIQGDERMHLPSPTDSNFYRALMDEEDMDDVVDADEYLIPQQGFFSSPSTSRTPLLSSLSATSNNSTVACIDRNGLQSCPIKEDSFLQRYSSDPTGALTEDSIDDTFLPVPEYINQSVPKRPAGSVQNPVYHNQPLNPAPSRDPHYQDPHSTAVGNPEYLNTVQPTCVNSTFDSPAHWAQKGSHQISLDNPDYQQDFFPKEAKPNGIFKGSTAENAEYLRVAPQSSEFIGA
T1 sequence (P00533 whole entry, change not shown): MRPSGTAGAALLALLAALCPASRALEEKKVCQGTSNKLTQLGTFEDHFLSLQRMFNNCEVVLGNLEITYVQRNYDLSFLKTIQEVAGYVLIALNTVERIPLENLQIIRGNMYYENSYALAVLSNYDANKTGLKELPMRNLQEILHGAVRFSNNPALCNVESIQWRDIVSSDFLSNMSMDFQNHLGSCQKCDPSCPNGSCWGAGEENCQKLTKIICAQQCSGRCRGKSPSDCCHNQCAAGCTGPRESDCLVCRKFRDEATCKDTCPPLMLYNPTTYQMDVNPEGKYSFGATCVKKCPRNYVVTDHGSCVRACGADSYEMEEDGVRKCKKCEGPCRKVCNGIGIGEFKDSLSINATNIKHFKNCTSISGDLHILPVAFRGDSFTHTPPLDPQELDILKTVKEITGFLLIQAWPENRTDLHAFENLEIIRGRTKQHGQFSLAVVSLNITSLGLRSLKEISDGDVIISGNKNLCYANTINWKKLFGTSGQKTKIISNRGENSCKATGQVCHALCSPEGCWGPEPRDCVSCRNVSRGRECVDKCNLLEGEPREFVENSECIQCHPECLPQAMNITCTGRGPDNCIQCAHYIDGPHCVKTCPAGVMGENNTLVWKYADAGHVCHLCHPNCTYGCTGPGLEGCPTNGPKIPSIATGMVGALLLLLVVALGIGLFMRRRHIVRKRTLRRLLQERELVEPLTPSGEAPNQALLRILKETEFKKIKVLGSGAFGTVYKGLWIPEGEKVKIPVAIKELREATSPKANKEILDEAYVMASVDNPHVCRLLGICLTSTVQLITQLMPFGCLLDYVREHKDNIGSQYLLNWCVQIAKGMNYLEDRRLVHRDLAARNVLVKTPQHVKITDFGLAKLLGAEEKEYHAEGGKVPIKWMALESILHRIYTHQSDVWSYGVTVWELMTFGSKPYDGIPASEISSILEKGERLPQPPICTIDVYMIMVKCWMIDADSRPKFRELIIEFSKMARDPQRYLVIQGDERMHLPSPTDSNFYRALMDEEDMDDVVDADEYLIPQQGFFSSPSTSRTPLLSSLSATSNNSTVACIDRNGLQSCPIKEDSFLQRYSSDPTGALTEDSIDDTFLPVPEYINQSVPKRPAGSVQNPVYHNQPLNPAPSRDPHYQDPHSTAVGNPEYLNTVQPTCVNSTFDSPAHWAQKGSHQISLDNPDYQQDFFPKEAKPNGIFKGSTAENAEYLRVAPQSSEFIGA
Chain of Ba/F3-FL-EGFR-del19/T790M (P00533 with tags, fused parts or gaps DEL746-750/T790M): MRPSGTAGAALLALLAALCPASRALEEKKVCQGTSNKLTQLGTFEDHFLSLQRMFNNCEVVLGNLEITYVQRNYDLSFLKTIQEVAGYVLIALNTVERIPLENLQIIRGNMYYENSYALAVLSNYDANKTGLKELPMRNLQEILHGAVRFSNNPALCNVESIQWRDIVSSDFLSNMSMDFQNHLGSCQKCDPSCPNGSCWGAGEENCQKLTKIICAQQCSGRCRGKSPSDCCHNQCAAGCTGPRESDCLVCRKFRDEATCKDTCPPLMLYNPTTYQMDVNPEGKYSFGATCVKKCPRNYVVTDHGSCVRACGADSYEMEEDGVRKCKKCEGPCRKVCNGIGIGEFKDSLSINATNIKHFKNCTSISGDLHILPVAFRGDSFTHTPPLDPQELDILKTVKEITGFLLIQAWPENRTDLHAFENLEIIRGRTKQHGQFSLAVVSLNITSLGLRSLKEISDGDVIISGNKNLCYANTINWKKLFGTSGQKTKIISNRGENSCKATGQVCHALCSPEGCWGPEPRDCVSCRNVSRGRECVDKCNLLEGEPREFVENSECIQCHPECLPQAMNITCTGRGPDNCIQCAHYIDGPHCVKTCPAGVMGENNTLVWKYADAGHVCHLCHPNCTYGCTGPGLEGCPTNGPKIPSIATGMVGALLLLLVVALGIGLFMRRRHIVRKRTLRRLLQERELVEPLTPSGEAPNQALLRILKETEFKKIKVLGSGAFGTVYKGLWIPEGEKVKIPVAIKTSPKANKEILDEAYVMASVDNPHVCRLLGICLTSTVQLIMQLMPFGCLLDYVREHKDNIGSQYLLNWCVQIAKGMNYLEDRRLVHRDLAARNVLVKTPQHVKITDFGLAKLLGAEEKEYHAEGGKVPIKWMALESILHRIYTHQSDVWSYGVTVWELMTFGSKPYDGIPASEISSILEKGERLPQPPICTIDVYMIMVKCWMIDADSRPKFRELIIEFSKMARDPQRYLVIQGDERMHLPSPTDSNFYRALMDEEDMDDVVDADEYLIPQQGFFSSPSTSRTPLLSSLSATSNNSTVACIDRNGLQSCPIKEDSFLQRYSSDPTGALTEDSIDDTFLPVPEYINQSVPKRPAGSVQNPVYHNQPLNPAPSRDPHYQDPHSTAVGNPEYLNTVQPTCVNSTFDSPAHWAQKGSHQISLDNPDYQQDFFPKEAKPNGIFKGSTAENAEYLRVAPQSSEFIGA

SMILES | GI50 (Ba/F3-FL-EGFR-L858R) [nM] | IC50 (EGFR (wild-type)) [nM] | GI50 [1] [nM] | CLint scaled at 1 μM [2] [mL/min/kg] | GI50 [3] [nM] | GI50 (Ba/F3-FL-EGFR) [nM] | GI50 [4] [nM]
CC(C)c1ccc(N2CC(N(C)S(C)(=O)=O)C2)c2cnc(Nc3ccnc(N4CC[C@@H](O)[C@@H](F)C4)n3)cc12 [Compound P39a] | 18 | 9.4 | 8.8 | 231 | 4.4 | 670 | 41
CC(C)c1ccc(N2C[C@H](CS(C)(=O)=O)[C@H]2C)c2cnc(Nc3ccnc(-c4cnn(S(=O)(=O)C5CC5)c4)n3)cc12 [Compound H12] | 7.7 | 1.9 | 16 | 196 | 5.1 | 209 | 15
